The test system of one data set is endothelial cells. As to the kind of experiment: Endothelial Cell Assay (inhibition of endothelial cell growth). It is filed as cell-based. Particulars: for Endothelial cell assay reading, samples 1-5: raw reading per sample. How it is done:
The assays were carried out according to the procedures of Connally, et al. (1986) Anal. Biochem. 152:136-4 with modifications (Liang and Wong (1999) ANGIOGENESIS: FROM THE MOLECULAR TO INTEGRATIVE PHARMACOLOGY edited by Maradoudakis, Kluwer Academic/Plenum. Publishers, New York).

The nature of data set [1]: Organ distribution of gossypol enantiomers. Particulars: in vivo.

The source of these data is patent publication US6608107B2, “Methods and compositions to treat conditions associated with neovascularization” (Wackvom Limited, priority 2000, dated 2003).

Several values for one entry are separate records, joined by “and”; a condition that tells them apart may be missing. Equal values may be shown once.

For `Cc1cc2c(C(C)C)c(O)c(O)c(C=O)c2c(O)c1-c1c(C)cc2c(C(C)C)c(O)c(O)c(C=O)c2c1O` [Gossypol], in the data set on endothelial cells (Concentration of Gossypol: 25 mM), the “Endothelial cell assay reading, samples 1-5” value was 0.0112 and 0.0078 and 0.0057 and 0.0068 and 0.0076. For the same compound, in the data set on endothelial cells (Endothelial cell, Concentration of Gossypol: 25 mM), the inhibition (in general, the relative decrease from the control value, in per cent) at 25000 µM turned out to be 97.6%. With `Cc1cc2c(C(C)C)c(O)c(O)c(C=O)c2c(O)c1-c1c(C)cc2c(C(C)C)c(O)c(O)c(C=O)c2c1O` [(−) gossypol], the “organs in which the enantiomer concentrates” value in data set [1] was “concentrates in the major organs such as the heart, spleen and muscles”. On to `Cc1cc2c(C(C)C)c(O)c(O)c(C=O)c2c(O)c1-c1c(C)cc2c(C(C)C)c(O)c(O)c(C=O)c2c1O` [Gossypol Acetate, gossypol acetate], for which the Inhibition (in general, the percentage by which the read-out fell short of the control) with endothelial cells (Gossypol Acetate, first column (concentration not given)) amounted to 46.2%; in the data set with endothelial cells (Gossypol Acetate, second column (concentration not given)), 21.3%. The “Endothelial cell assay reading, samples 1-5” value with endothelial cells (Gossypol Acetate) is 0.3289 and 0.3165 and 0.3065 and 0.3035 and 0.3269. As for `Cc1cc2c(C(C)C)c(O)c(O)c(C=O)c2c(O)c1-c1c(C)cc2c(C(C)C)c(O)c(O)c(C=O)c2c1O` [(+) gossypol], in data set [1], the “organs in which the enantiomer concentrates” value is given as “concentrates in the kidneys”.
